From US5750553A, “Optionally substituted phenylimidazolidines, their preparation process and intermediates, their use as medicaments and the pharmaceutical compositions containing them” (Roussel Uclaf, priority 1994, dated 1998) come the findings set out here.

The structures appear in SMILES notation.

One experiment addresses T1, androgen receptor (Rattus norvegicus, UniProt P15207).
T1 construct: the prostates are removed, weighed and homogenized at 0° C; from tissue; host or cells: prostate cytosol (209,000 g supernatant) of castrated male Sprague Dawley rats
T1 sequence (P15207 1-902): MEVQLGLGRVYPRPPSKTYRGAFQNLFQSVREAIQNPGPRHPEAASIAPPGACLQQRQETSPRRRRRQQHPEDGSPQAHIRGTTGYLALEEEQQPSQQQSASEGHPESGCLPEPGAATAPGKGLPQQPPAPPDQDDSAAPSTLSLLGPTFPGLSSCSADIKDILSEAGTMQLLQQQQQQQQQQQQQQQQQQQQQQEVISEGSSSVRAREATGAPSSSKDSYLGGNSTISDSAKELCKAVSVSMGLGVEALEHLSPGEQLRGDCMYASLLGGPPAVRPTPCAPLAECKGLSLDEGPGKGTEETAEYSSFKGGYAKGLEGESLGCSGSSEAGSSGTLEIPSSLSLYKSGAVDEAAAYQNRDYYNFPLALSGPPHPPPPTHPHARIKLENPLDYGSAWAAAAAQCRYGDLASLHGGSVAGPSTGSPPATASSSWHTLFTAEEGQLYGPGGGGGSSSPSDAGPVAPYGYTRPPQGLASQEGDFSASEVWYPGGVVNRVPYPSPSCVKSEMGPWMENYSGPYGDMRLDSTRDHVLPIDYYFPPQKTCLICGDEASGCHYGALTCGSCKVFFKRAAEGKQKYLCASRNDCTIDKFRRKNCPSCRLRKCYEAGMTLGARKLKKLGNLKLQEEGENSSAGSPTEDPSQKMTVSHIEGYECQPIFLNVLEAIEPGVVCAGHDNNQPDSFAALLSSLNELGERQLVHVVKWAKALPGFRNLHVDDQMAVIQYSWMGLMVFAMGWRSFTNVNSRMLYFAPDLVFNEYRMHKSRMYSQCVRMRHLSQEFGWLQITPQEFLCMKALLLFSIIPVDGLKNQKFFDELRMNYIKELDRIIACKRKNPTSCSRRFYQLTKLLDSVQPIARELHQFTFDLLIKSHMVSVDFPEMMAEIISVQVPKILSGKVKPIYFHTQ
Nature of the experiment: Study of the affinity of the products of the invention for the androgen receptor (displacement of tritiated testosterone, rat prostate cytosol). In kind it is binding, Male Sprague Dawley EOPS rats. To be noted: Incubation: 24 hours, 0° C., RBA=100 (CH)/(CX), testosterone = 100. The method, then: 1) Study of the affinity of the products of the invention for the androgen receptor
Male Sprague Dawley EOPS rats weighing 180-200 g, castrated 24 hours previously, are sacrificed, the prostates are removed, weighed and homogenized at 0° C. using a Potter glass, in a buffered solution (10 mM Tris, 0.25M saccharose, 0.1 mM PMSF (phenylmethanesulphonylfluoride), 20 mM sodium molybdate, HCl pH 7.4) to which is added extemporaneously 2 mM of DTT (DL dithiothreitol), at the rate of 1 g of tissue per 8 ml of buffer.
The homogenate is then ultracentrifuged at 0° C., for 30 minutes at 209,000 g. […] Calculation of the relative bond affinity (RBA).
The following 2 curves are drawn: the percentage of the bound tritiated hormone B/T as a function of the logarithm of the concentration of the unlabelled reference hormone and B/T as a function of the logarithm of the concentration of the unlabelled product tested. The straight line of the equation I50 =(B/Tmax+B/Tmin)/2 is determined. B/Tmax=% of the bound tritiated hormone for an incubation of this tritiated hormone at the concentration (T). B/Tmin=% of the bound tritiated hormone for an incubation of this tritiated hormone at the concentration (T) in the presence of a large excess of unlabelled hormone (2500.10^-9 M).
The intersections of the straight line I50 and the curves enable the concentrations of the unlabelled reference hormone (CH) and of the unlabelled tested product (CX) which inhibit by 50% the binding of the tritiated hormone on the receptor to be evaluated.

In experiment [1] the test system is renal ornithine decarboxylase (ODC). Nature of the experiment: Determination of the androgen or anti-androgen activity using dosage of ornithine decarboxylase (ODC) in castrated mice receiving testosterone propionate. In kind it is in vivo, male SWISS mice. To be noted: percutaneous route, 1.5 mg/kg in 10 μl; testosterone propionate 3 mg/kg sub-cutaneous; kidneys 20 hours after treatment. As to the method: 2) Determination of the androgen or anti-androgen activity of the products of the invention using dosage of ornithine decarboxylase (ODC).
20 hours after the treatments, the animals are sacrificed, the kidneys are removed, then homogenized at 0° C., using a teflon glass grinder in 10 volumes of Tris-HCl 50 mM (pH 7.4) buffer containing 250 μM of pyridoxal phosphate, 0.1 mM EDTA, and 5 mM of dithiothreitol. The homogenate is then centrifuged at 209,000 g for 30 minutes.
At 37° C., renal ornithine decarboxylase converts an isotopic mixture of unlabelled ornithine and tritiated ornithine into unlabelled putrescine and tritiated putrescine.
The putrescine is then collected on selective ion-exchange papers. After drying, the excess unconverted tritiated and unlabelled ornithine is eliminated by washing 3 times with 0.1M of ammonium hydroxide. The papers are dried, then the radioactivity is counted after addition of scintillating Aqualite.
The results are expressed as fmoles (10^-15 M) of tritiated putrescine formed/hour/mg of proteins.
Test: the products are administered by percutaneous route at 1.5 mg/kg in a volume of 10 μl.

`CN1C(=O)N(c2ccc(C#N)c(C(F)(F)F)c2)C(=O)C1(C)CF` (centres unmarked) [Example 6]: the “relative bond affinity (RBA)” value on androgen receptor was found to be 16. Also, the “% of inhibition of the ODC of the controls receiving only testosterone propionate” value in experiment [1] is reported as 84%.

As for `CC1(CO)C(=O)N(c2ccc(C#N)c(C(F)(F)F)c2)C(=O)N1CCF` (centres unmarked) [Example 3, 4-(2,5-dioxo 3-(2-fluoroethyl) 4-(hydroxymethyl) 4-methyl 1-imidazolidinyl)2-(trifluoromethyl) benzonitrile], the “relative bond affinity (RBA)” value on androgen receptor is recorded as 6. Further, the “% of inhibition of the ODC of the controls receiving only testosterone propionate” value in experiment [1] was found to be 47%.

`N#Cc1ccc(N2C(=O)NC(CO)(CO)C2=O)cc1C(F)(F)F` [Example 26, 4-(4,4-bis(hydroxymethyl)-2,5-dioxo-1-imidazolidinyl)-2-(trifluoromethyl)-benzonitrile]: the “relative bond affinity (RBA)” value at androgen receptor is given as 4.
